The source of these data is PMC12261233, “Photoactivatable Cyclometalated Ir(III) Compound Penetrates the Blood-Brain Barrier in 3D Spheroidal and Advanced 3D Organoid Models of Inherently Resistant and Aggressive Brain Tumors” (ACS Pharmacology & Translational Science, 2025).

Assay [1] deals with cerebral organoid with U87MG spheroid implant. The assay can be described thus: Distribution of compound in organoid-spheroid implant model (confocal). The format is cell-based, human. As to conditions: 5 μM. As to the method: An implant fusion model was established to monitor the distribution of Ir4 within the tumor, represented by the implanted tumorspheres generated from U87MG, and healthy tissue, represented by the hiPSC-derived cerebral organoid. Before the implantation procedure, spheroids derived from U87MG glioblastoma were cultured for 72 h under 3D forming conditions using ULA plates (96-well U-shaped plate, Corning) in DMEM-F12 supplemented with 2% B27, epidermal growth factor (EGF) at 20 ng mL^–1, fibroblast growth factor 2 (FGF2) at 10 ng mL^–1, and BSA (0.15%). Cerebral organoids were generated through a four-step directed differentiation process from human induced pluripotent stem cells (hiPSCs, Gibco). The hiPSCs were cultured on Geltrex matrix (hESC-Qualified, Reduced Growth Factor Basement Membrane Matrix; Gibco) in StemFlex basal medium (DMEM/F12, Ham, 1:1) fully supplemented with StemFlex supplement (Gibco). […] After the initial differentiation phase, early organoids were monitored for the development of optically clear neuroectoderm (characterized by an optically bright, translucent surface) and the formation of large buds of translucent ectoderm that were not radially organized. […] The samples were then transferred to confocal Petri dishes containing drug-free cerebral maturation medium and analyzed using a confocal microscope (Leica CM SP5, Leica, Germany).

A short description of assay [2]: Photocatalytic oxidation of NADH under blue light. The format is biochemical. The settings on record: blue light 465 nm, 4.8 mW cm^–2; NADH 100 µM, complex 5 µM. The procedure:
Photostability is essential for PDT agents, as photobleaching can compromise their effectiveness. […] Control experiments in the absence of Ir(III) complexes (Figure S24) or light (Figure S25) corroborated the photocatalytic character of this transformation. […] Additionally, singlet oxygen (^1O2) is the primary cytotoxic species in Type II PDT. , The ability of complexes Ir3–Ir5 and Ir10 to generate singlet oxygen was evaluated by measuring the decrease in […] (DPBF) absorbance at 411 nm under blue light irradiation (Figure S26). […] This confirmed the production of hydroxyl radicals, particularly with complexes Ir3 and Ir10, after 8 min of irradiation (Figure S29).
1. Photocatalytic properties of complexes Ir1−Ir10 in cell-free media.
1.1. Photooxidation of NADH.
The ability of the complexes to photocatalyse the oxidation of NADH was evaluated by recording the absorption spectra of NADH (100 µM) in the presence of complex (5 µM) in PBS (5% DMF) upon blue light irradiation (EXPO-Panels from Luzchem (Canadá)) (465 nm, 5.0 […]
1.2. Quantum yields for the generation of 1O2. […]
Where ΦΔR is the reference quantum yield, mR and mS are the slopes of the reference and sample, respectively, and AR and AS are the absorbance of the reference and the sample at the […]

`CCCCn1c2[n+](c3cc(C(=O)OC)ccc31)[Ir-3]13([Cl])([c]4ccccc4-2)[n+]2ccccc2-c2cc(-c4ccc(C)cc4)cc([n+]21)-c1cccc[n+]13.F[P-](F)(F)(F)(F)F` [Ir4]: the “distribution in organoid-spheroid fusion system” value in assay [1] is given as “predominantly accumulated in malignant tissues”.

Regarding `Cc1ccc(-c2cc3[n+]4c(c2)-c2cccc[n+]2[Ir-3]42([Cl])([c]4cc5ccccc5cc4-c4n(Cc5ccc(C(F)(F)F)cc5)c5ccccc5[n+]42)[n+]2ccccc2-3)cc1.F[P-](F)(F)(F)(F)F` [Ir3], the “Turnover Frequency (TOF) of NADH photo-oxidation” value in assay [2] is “about 110 h^–1”.
